Measurements taken from PubChem BioAssay AID2060483 (Molecular Pharmacology Branch, DTP, NCI, 2025).
One block for each molecule: values may come before it.

Test system: K24384-001-R-PDC complex spheroids, viability
Assay: Anticancer human tumor K24384-001-R-PDC patient-derived pancreatic adenocarcinoma cell line growth inhibition [GQUAD]
Details: for IC50: curve of first compound; for viability, T/C: stronger effect = lower value
Procedure, shortened: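 Viability of tumor cells grown as complex spheroids with endothelial and stromal cells, exposed to drug combinations. Top concentration at or near clinical Cmax (else 10 microM), diluted in half-log increments.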

[1] = second compound 0.0316 µM, first compound 0.0316 µM
[2] = second compound 0.0316 µM, first compound 0.316 µM
[3] = second compound 0.1 µM, first compound 0.0316 µM
[4] = second compound 0.1 µM, first compound 0.316 µM
[5] = second compound 0.316 µM, first compound 0.0316 µM
[6] = second compound 0.316 µM, first compound 0.316 µM
[7] = second compound 1 µM, first compound 0.0316 µM
[8] = second compound 1 µM, first compound 0.316 µM
[9] = second compound 3.16 µM, first compound 0.0316 µM
[10] = second compound 3.16 µM, first compound 0.316 µM
[11] = second compound 10 µM, first compound 0.0316 µM
[12] = second compound 10 µM, first compound 0.316 µM
[13] = second compound 0.0316 µM, first compound 0.1 µM
[14] = second compound 0.0316 µM, first compound 1 µM
[15] = second compound 0.0316 µM, first compound 3.16 µM
[16] = second compound 0.0316 µM, first compound 10 µM
[17] = second compound 0.1 µM, first compound 0.1 µM
[18] = second compound 0.1 µM, first compound 1 µM
[19] = second compound 0.1 µM, first compound 3.16 µM
[20] = second compound 0.1 µM, first compound 10 µM
[21] = second compound 0.316 µM, first compound 0.1 µM
[22] = second compound 0.316 µM, first compound 1 µM
[23] = second compound 0.316 µM, first compound 3.16 µM
[24] = second compound 0.316 µM, first compound 10 µM
[25] = second compound 1 µM, first compound 0.1 µM
[26] = second compound 1 µM, first compound 1 µM
[27] = second compound 1 µM, first compound 3.16 µM
[28] = second compound 1 µM, first compound 10 µM
[29] = second compound 3.16 µM, first compound 0.1 µM
[30] = second compound 3.16 µM, first compound 1 µM
[31] = second compound 3.16 µM, first compound 3.16 µM
[32] = second compound 3.16 µM, first compound 10 µM
[33] = second compound 10 µM, first compound 0.1 µM
[34] = second compound 10 µM, first compound 1 µM
[35] = second compound 10 µM, first compound 3.16 µM
[36] = second compound 10 µM, first compound 10 µM
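Note: spheroids exposed to compounds for seven days.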

IC50 (second compound 0.0316 µM): 118 nM
IC50 (second compound 0.1 µM): 79.4 nM
IC50 (second compound 0.316 µM): 39.5 nM
IC50 (second compound 1 µM): < 0.999 nM
IC50 (second compound 3.16 µM): < 0.999 nM
IC50 (second compound 10 µM): < 0.999 nM
Compound: Cc1[nH]c2ccccc2c1CCNCc1ccc(/C=C/C(=O)NO)cc1 + Cc1cnc(CNC(=O)c2c(=O)c3ccc(N4CCCN(C)CC4)nc3n3c2sc2ccccc23)cn1
viability, T/C (second compound 0.0316 µM, first compound 0.000999 µM): 83.9%
viability, T/C (second compound 0.0316 µM, first compound 0.00316 µM): 75.8%
viability, T/C (second compound 0.0316 µM, first compound 0.00999 µM): 109%
viability, T/C [1]: 82.9%
viability, T/C (second compound 0.0316 µM, first compound 0.0999 µM): 57.4%
viability, T/C [2]: 6.49%
viability, T/C (second compound 0.1 µM, first compound 0.000999 µM): 65.4%
viability, T/C (second compound 0.1 µM, first compound 0.00316 µM): 81.2%
viability, T/C (second compound 0.1 µM, first compound 0.00999 µM): 74.7%
viability, T/C [3]: 57%
viability, T/C (second compound 0.1 µM, first compound 0.0999 µM): 48.9%
viability, T/C [4]: 5.15%
viability, T/C (second compound 0.316 µM, first compound 0.000999 µM): 45.5%
viability, T/C (second compound 0.316 µM, first compound 0.00316 µM): 54.4%
viability, T/C (second compound 0.316 µM, first compound 0.00999 µM): 63.1%
viability, T/C [5]: 44.8%
viability, T/C (second compound 0.316 µM, first compound 0.0999 µM): 45.6%
viability, T/C [6]: 1.86%
viability, T/C (second compound 1 µM, first compound 0.000999 µM): 41.3%
viability, T/C (second compound 1 µM, first compound 0.00316 µM): 41.8%
viability, T/C (second compound 1 µM, first compound 0.00999 µM): 37.3%
viability, T/C [7]: 37.3%
viability, T/C (second compound 1 µM, first compound 0.0999 µM): 28.2%
viability, T/C [8]: 0.15%
viability, T/C (second compound 3.16 µM, first compound 0.000999 µM): 33.8%
viability, T/C (second compound 3.16 µM, first compound 0.00316 µM): 33.3%
viability, T/C (second compound 3.16 µM, first compound 0.00999 µM): 35.4%
viability, T/C [9]: 34.6%
viability, T/C (second compound 3.16 µM, first compound 0.0999 µM): 13.5%
viability, T/C [10]: 0.12%
viability, T/C (second compound 10 µM, first compound 0.000999 µM): 0.27%
viability, T/C (second compound 10 µM, first compound 0.00316 µM): 0.26%
viability, T/C (second compound 10 µM, first compound 0.00999 µM): 0.28%
viability, T/C [11]: 0.32%
viability, T/C (second compound 10 µM, first compound 0.0999 µM): 0.26%
viability, T/C [12]: 0.21%

Compound: C=CCn1c(=O)c2cnc(Nc3ccc(N4CCN(C)CC4)cc3)nc2n1-c1cccc(C(C)(C)O)n1 + Cc1[nH]c2ccc(F)cc2c1-c1nc2c3cccnc3c3ncccc3c2[nH]1
IC50 (second compound 0.0316 µM): 436 nM
IC50 (second compound 0.1 µM): 285 nM
IC50 (second compound 0.316 µM): 420 nM
IC50 (second compound 1 µM): 241 nM
IC50 (second compound 3.16 µM): 192 nM
IC50 (second compound 10 µM): 159 nM
viability, T/C [1]: 94.8%
viability, T/C [13]: 77.8%
viability, T/C [2]: 63.1%
viability, T/C [14]: 19.3%
viability, T/C [15]: 14.9%
viability, T/C [16]: 16.6%
viability, T/C [3]: 98.7%
viability, T/C [17]: 95%
viability, T/C [4]: 45.5%
viability, T/C [18]: 19.7%
viability, T/C [19]: 16.8%
viability, T/C [20]: 18.8%
viability, T/C [5]: 89.6%
viability, T/C [21]: 84.5%
viability, T/C [6]: 60.6%
viability, T/C [22]: 17%
viability, T/C [23]: 18.8%
viability, T/C [24]: 15.2%
viability, T/C [7]: 79.5%
viability, T/C [25]: 71.9%
viability, T/C [8]: 43.6%
viability, T/C [26]: 17.2%
viability, T/C [27]: 18.4%
viability, T/C [28]: 16.6%
viability, T/C [9]: 73%
viability, T/C [29]: 63%
viability, T/C [10]: 40%
viability, T/C [30]: 13.6%
viability, T/C [31]: 21.1%
viability, T/C [32]: 19.1%
viability, T/C [11]: 79%
viability, T/C [33]: 53.2%
viability, T/C [12]: 46.2%
viability, T/C [34]: 16.3%
viability, T/C [35]: 14.5%
viability, T/C [36]: 17.1%

Compound: COc1cc(C2c3cc4c(cc3C(OC3OC5COC(C)OC5C(O)C3O)C3COC(=O)C23)OCO4)cc(OC)c1O (stereo unspecified) + CN(C)c1ccc(Nc2c3ccc(NC(=O)CCN4CCCC4)cc3nc3cc(NC(=O)CCN4CCCC4)ccc23)cc1
IC50 (second compound 0.0316 µM): 958 nM
IC50 (second compound 0.1 µM): 836 nM
IC50 (second compound 0.316 µM): 762 nM
IC50 (second compound 1 µM): 807 nM
IC50 (second compound 3.16 µM): 665 nM
IC50 (second compound 10 µM): 710 nM
viability, T/C [1]: 105%
viability, T/C [13]: 87.1%
viability, T/C [2]: 79.1%
viability, T/C [14]: 46%
viability, T/C [15]: 36.7%
viability, T/C [16]: 37.5%
viability, T/C [3]: 92%
viability, T/C [17]: 99.7%
viability, T/C [4]: 76.8%
viability, T/C [18]: 46.3%
viability, T/C [19]: 40.2%
viability, T/C [20]: 41.4%
viability, T/C [5]: 94.9%
viability, T/C [21]: 91%
viability, T/C [6]: 76.1%
viability, T/C [22]: 40.9%
viability, T/C [23]: 45.3%
viability, T/C [24]: 39.5%
viability, T/C [7]: 93.2%
viability, T/C [25]: 95.3%
viability, T/C [8]: 81.2%
viability, T/C [26]: 42.9%
viability, T/C [27]: 43%
viability, T/C [28]: 38.5%
viability, T/C [9]: 93.8%
viability, T/C [29]: 104%
viability, T/C [10]: 67.7%
viability, T/C [30]: 46.8%
viability, T/C [31]: 36.9%
viability, T/C [32]: 37.2%
viability, T/C [11]: 94.3%
viability, T/C [33]: 105%
viability, T/C [12]: 60.9%
viability, T/C [34]: 59.1%
viability, T/C [35]: 30.8%
viability, T/C [36]: 46.3%
